Laboratory results as given in patent publication EP3193856B1, “FORMULATION” (Pharmaq AS, priority 2014, dated 2016).
Converted amounts (≈) assume the structure as drawn. Where two headings read alike, the source gives them in different places.

Assays:
[1] = tested on: Atlantic salmon; test: Safety of formulations based on different solvents after intraperitoneal injection; format: in vivo; conditions: i.p. 0.2 ml; 37.8 g, freshwater 17°C; 3 week period
Experimental: Atlantic salmon (average size: 37.8 g) kept in freshwater (17°C) were divided into 11 groups of 5 or 25 fish per group. Mortality was then logged over a 3 week period. […]

[2] = Maximum solubility of hexaflumuron in PEG/DMSO/CA as a function of PEG molecular weight (Figure 6); format: physicochemical; conditions: PEG600/DMSO/CA mixture, organic solvent or mixture, thermodynamic from solid; formulation with 85% by weight PEG600 and 15% by weight DMSO
Experimental: An experiment was performed in order to investigate the solubility of parasiticide (hexaflumuron) in a formulation comprising PEG (85 mass%), DMSO (15 mass%), and CA (0.3 volume %) as a function of PEG molecular weight. Increasing amounts of hexaflumuron were dissolved in different mixtures of PEG/DMSO/CA (85/15/0.3) with PEG molecular weights ranging from 200 to 600.

[3] = tested on: Lepeophtheirus salmonis; test: Sea lice challenge of treated Atlantic salmon; format: in vivo; conditions: for Mean number of lice per fish Treated group: chalimus stage counted 2 weeks post challenge, n=10; for Relative effect of treatment: versus untreated group
Experimental: Atlantic salmon (total n=180) were kept in full seawater (3.5% salinity, 12°C). Half of the population (n=90) were treated with parasiticide (in this case hexaflumuron) on day 0. Treated and untreated fish (n=10 per group) were randomly collected from each group and challenged with copepodids of Lepeophtheirus salmonis in a common challenge tank during a 12 weeks period. This was done six times after treatments, in weeks 1, 3, 6, 8, 10 and 12 post treatment. The number of lice reaching chalimus stage was registered on each fish 2 weeks post challenge. Concentration of hexaflumuron in a portion of muscle with skin was also measured in each fish at the time of lice count.

[4] = Solubility of hexaflumuron, solvent added gradually until complete dissolution; format: physicochemical; conditions: for solubility: thermodynamic from solid
Experimental: In order to produce a formulation in which hexaflumuron was present in stable solution, the solubility of hexaflumuron in various other solvents was investigated. Solubility was determined by adding each solvent gradually to a specific mass of hexaflumuron until complete dissolution was observed.

[5] = cited from earlier work
[6] = tested on: Atlantic salmon; conditions: in vivo, ip, 3 months
Experimental: To investigate the toxicity of the polar solvent further, formulations comprising different amounts of DMSO were prepared as detailed in Table 4. The formulations were intraperitoneally injected in a single dose into Atlantic salmon (19 - 38 g) kept in freshwater (8 - 17 °C). The eventual toxicity induced by each formulation was assessed by continuous registration of mortality up until 3 months post injection, and is shown in Table 4.
Therefore, it was extremely surprising to find that doses as low as about 1 g/kg cause mortality in Atlantic salmon.

[7] = tested on: salmonids; conditions: Benville et al 1968; cited from earlier work

## CC(O)CO (stereo not shown) [PG, propylene glycol]
[1]
  % Mortality: 0%

## CCOC(C)=O [Ethyl acetate]
[1]
  % Mortality: 100%

## O=C(NC(=O)c1c(F)cccc1F)Nc1cc(Cl)c(OC(F)(F)C(F)F)c(Cl)c1 [Hexaflumuron]
[2]
  solubility: ~130 mg/mL (≈ 282 mM)
[3]; challenged week 1 post treatment, Atlantic salmon, seawater 12°C
  Mean number of lice per fish Treated group: 0
[3]; challenged week 3 post treatment
  Mean number of lice per fish Treated group: 0
[3]; challenged week 6 post treatment
  Mean number of lice per fish Treated group: 0
[3]; challenged week 8 post treatment
  Mean number of lice per fish Treated group: 0.2
[3]; challenged week 10 post treatment
  Mean number of lice per fish Treated group: 1.7
[3]; challenged week 12 post treatment
  Mean number of lice per fish Treated group: 27.6
[3]; week 1 post treatment
  Relative effect of treatment: 100%
[3]; week 3 post treatment
  Relative effect of treatment: 100%
[3]; week 6 post treatment
  Relative effect of treatment: 100%
[3]; week 8 post treatment
  Relative effect of treatment: 98%
[3]; week 10 post treatment
  Relative effect of treatment: 69%
[3]; week 12 post treatment
  Relative effect of treatment: 47%
[4]; oil or lipid, solvent: Isopropyl myristate
  solubility: < 1 mg/mL
[4]; oil or lipid, solvent: Paraffin Light Liquid
  solubility: < 0.1 mg/mL
[4]; organic solvent or mixture, solvent: Acetone
  solubility: > 130 mg/mL
[4]; organic solvent or mixture, solvent: DMA
  solubility: > 300 mg/mL
[4]; organic solvent or mixture, solvent: DMF
  solubility: > 300 mg/mL
[4]; organic solvent or mixture, solvent: DMSO
  solubility: > 300 mg/mL
[4]; organic solvent or mixture, solvent: Ethyl acetate
  solubility: > 75 mg/mL
[4]; organic solvent or mixture, solvent: NMP
  solubility: > 300 mg/mL
[4]; organic solvent or mixture, solvent: Propylene glycol (PG)
  solubility: < 0.5 mg/mL
[4]; organic solvent or mixture, solvent: Tetraglycol
  solubility: > 75 mg/mL
[4]; organic solvent or mixture, solvent: n-heptane
  solubility: < 0.5 mg/mL
[4]; solvent: DMSO
  Hexaflumuron Solubility: >300 mg/mL
[5]; solvent: Methanol
  Hexaflumuron Solubility: 11300 µg/mL
[5]; solvent: Water
  Hexaflumuron Solubility: 0.027 µg/mL
[5]; solvent: Water, listed as hexaflumuron
  Hexaflumuron Solubility: about 2.7 x 10^-5 mg/ml
[5]; solvent: Xylene
  Hexaflumuron Solubility: 5200 µg/mL

## Glycofurol
[1]
  % Mortality: 100%

## COCC(C)O (stereo not shown) [1-methoxy-2-propanol]
[1]
  % Mortality: 100%

## C[S+](C)[O-] [DMSO, Dimethyl sulfoxide]
[6]
  doses at which DMSO was found to be toxic: > 1000 mg/kg
[7]
  LD50: 12000 to 17000 mg/kg
  dose reported not to give any mortality: 7050 mg/kg

## CN1CCCC1=O [NMP, n-methyl-2-pyrrolidone]
[1]
  % Mortality: 100%
